Structures can show the parent of a compound that is named as a salt. Ends that are not written are not given here.
Experiments:
[1] = tested on: AsPC-1 pancreatic cancer cells; type: in vivo, Balb/c nude mice; conditions: allostatine-1 2.5 mg/kg daily s.c.; paclitaxel 8 mg/kg weekly i.p.
[2] = tested on: CT26 colon cancer cells; assay: CT26 colon cancer liver metastasis model; type: in vivo, Balb/c mice; conditions: allostatine-1 5 mg/kg daily s.c.; CPT-11 100 mg/kg weekly i.p.

Molecule	Median survival [1] [days]	median survival days [2] [days]
HGVSGWGQHGTHG [Allostatine-1, linear 13-amino acid analog peptide of alloferon-1]	97	30
CC(=O)O[C@H]1C(=O)[C@@]2(C)[C@H]([C@H](OC(=O)c3ccccc3)[C@]3(O)C[C@H](OC(=O)[C@H](O)[C@@H](NC(=O)c4ccccc4)c4ccccc4)C(C)=C1C3(C)C)[C@]1(OC(C)=O)CO[C@@H]1C[C@@H]2O [Paclitaxel]	108	
CCc1c2c(nc3ccc(OC(=O)N4CCC(N5CCCCC5)CC4)cc13)-c1cc3c(c(=O)n1C2)COC(=O)[C@]3(O)CC [CPT-11, Irinotecan hydrochloride]		35.5

— US20210106648A1, “SYNERGISTIC COMBINATION OF CHEMOTHERAPY AND PEPTIDE FOR TREATING CANCER” (TOBEBIO Novel Drug Laboratory Co., Ltd., priority 2019, published 2021)
